Data published in US20170035791A1, “COMBINATION OF BETA-GLUCOSYLCERAMIDE AND POLYETHOXYLATED CASTOR OIL AND OTHER ADJUVANTS FOR CONTROLING BLOOD SUGAR LEVELS, IMMUNOPROTECTION AND HEPATOPROTECTION” (NATURAL SHIELD ISRAEL 2016 LTD, priority 2014, published 2017).

Legend:
[1] = system: alcohol induced liver damage mouse model; assay: Alcohol induced liver damage in a mouse model, ALT; type: in vivo; details: mice, alcohol 6 gr/kg by gavage with 6 microgram GC; after 16 hours; EtOH alone 414, naive 28
Procedure: The inventors further characterized the ameliorating effect of the GC—the alcohol induced liver damage in a mouse model. Table 9 summarizes the relevant experimental groups, including group A of naïve mice; group B receiving alcohol 6 gr/kg-300 μl of 70% Ethanol per mouse/gavage i.e. 3500 μl EtOH Abs.+1500 μl sterile water (Ethanol is equal to 6 gr/kg for 27.5 gr mouse body weight).; Group C receiving 6 microgram of GC with alcohol. Mice were sacrificed after 16 hours and the level of liver enzymes was evaluated.

C57B1/6 mice [2] = assay: Glucose tolerance test (GTT) in mice after Coca Cola with GC in C:E, GC in ethanol or C:E (Table 5, FIG. 5); type: in vivo; details: Coca Cola + add-on
Procedure: (§1) Male C57B1/6 mice (11-12 weeks old) were obtained from Harlan Laboratories (Jerusalem, Israel) and maintained in the Animal Core of the Hadassah-Hebrew University Medical School. All mice were administered standard laboratory chow and water ad libitum and kept in a 12-hour light/dark cycle. SSBs (Coca Cola or orange flavored soda) including additives GC and/or CE were orally administered in a volume of 300-350 μl per mouse by gavage. The animal experiments were carried out according to the guidelines of the Hebrew University-Hadassah Institutional Committee for Care and Use of Laboratory Animals and with the committee's approval.
Beta-glucosylceramide (GC) solution consisted of 60 mg GC (purchased from Avanti Polar Lipids; Alabaster, Ala., USA) dissolved in 1 ml mixture of 30% Cremophor EL (Sigma, Rehovot, Israel) and ethanol (1:1; CE) or ethanol alone. These served basis for preparation of SSBs containing GC and/or CE, including 1800 μl Coca Cola or other SSB and 400 μl GC in CE or ethanol or CE alone.
Mice undergo a glucose tolerance test on day 60. Glucose is administered orally (1 g per kg). Serum glucose measurements is performed on tail-vein blood every fifteen minutes for three hours. Glucose levels are measured by a standard glucometer. […]

[3] = system: APAP-mediated liver toxicity in male adult mice; assay: Acetaminophen (APAP) mediated liver toxicity, serum ALT; type: in vivo; details: APAP 4.6 mg/mouse; oral treatment 1 hour after APAP, GC 3 mg/mouse or C:E 30 μl/mouse; 24 hours after APAP; control 15612
Procedure: Acetaminophen powder (APAP; was purchased from Sigma, cat. # A7085), was dissolved in a mixture of 30% Cremophor EL (Sigma, Rehovot, Israel) and ethanol (1:1) in DDW (Di distilled water).
(§2) Mice were tested for serum alanine transaminase (ALT) and aspartate aminotransferase (AST) at 24 hours after acetaminophen administration. Serum AST and ALT levels were measured by an automatic analyzer.
APAP-mediated liver toxicity was induced in male adult mice fasted overnight and 2 hours after APAP administration. APAP was i.v. injected at the concentration of 4.6 mg/mouse. Various treatments, GC or C:E alone, GC with C:E and controls, were administered 1 hour after APAP injection. For various oral treatments, C:E: Cremophor:ethanol 1:1 solution was administered (30 μl/mouse); GC with CE: 100 mg GC dissolved in 1 ml C:E or GC in ethanol: 100 mg GC dissolved in 1 ml Ethanol Abs. were administered (3 mg/mouse); Control:PBS administered (30 μl/mouse).
All mice were sacrificed 24 hours after APAP administration and serum levels of ALT were measured.

ConA mouse model = assay: Concanavalin A (ConA) induced immune-mediated hepatitis, serum ALT and AST; type: in vivo, mice; details: ConA 0.5 mg/mouse i.v., oral GC 3 mg/mouse or C:E 30 μl/mouse, 15 hours following ConA
Procedure: Concanavalin A solution (ConA; purchased from MP Biomedicals, USA) consisted of 2 mg ConA in 1 ml distilled water. Mice were intravenously (IV) injected with 250 μl ConA solution (0.5 mg/mouse).
as §2
The inventors next examined the effect of the combination of GC and C:E on the immune-mediated hepatitis in Con A mouse model. Details on the relevant experimental procedures are given above in experimental procedures. In brief, mice were injected i.v. with 250 μl ConA (0.5 mg/mouse) for 15 hrs prior to oral treatments, including C:E: ethanol 1:1 solution administered (30 μl/mouse); GC with CE as 100 mg GC dissolved in 1 ml C:E or GC in ethanol as 100 mg GC dissolved in 1 ml ethanol abs. administered (3 mg/mouse); control as PBS administered (30 μl/mouse).

human subject = assay: Blood sugar levels in a human subject after drinking Coca Cola with GC or GC with CE add-ons; type: in vivo; details: 500 ml Coca Cola with 28 mg GC add-on
Procedure: A human subject healthy person was monitored for blood sugar levels for 2 hours every 15 minutes following an overnight fast and drinking of 500 ml of Coca Cola alone or Coca Cola with GC or GC with CE add-ons.

C57B1/6 mice [4] = assay: Blood sugar AUC in mice after oral Coca Cola with GC and/or CE add-on; type: in vivo; details: Coca Cola + add-on 350 μl/mouse by gavage, glucose at 0, 15, 30 min, Coca Cola alone 4785 ± 208
Procedure: as §1, with “approval. […]” for “approval.”
To evaluate the ability of GC to control blood sugar levels during consumption of a high glucose beverage, the inventors examined the effect of GC alone and of GC with CE combination, on mice consuming various high sugar soft drinks. […] Glucose levels were measured at 0, 15, and 30 min after Coca Cola administration.
To further evaluate the effect of C:E on blood sugar levels following consumption of Coca Cola, the inventors performed the experiment in Table 2, including group A receiving orally Coca Cola +C:E (350 μl/mouse by gavage) and group B receiving Coca Cola only (300 μl/mouse by gavage). Glucose levels were measured at 0, 15, and 30 min after Coca Cola administration.

## Beta-glucosylceramide [GC]
[1]
  ALT levees: 73
C57B1/6 mice [2]
  AUC at 30 minutes, effect compared to controls (FIG. 5B): significant
[3]
  ALT (serum): 9290
ConA mouse model; control 8807
  AST (serum): 2231
ConA mouse model; control 8887
  ALT (serum): 1875
Human subject; time 15 min
  Glucose: 128 mg %
Human subject; time 30 min
  Glucose: 135 mg %
Human subject; time 45 min
  Glucose: 152 mg %
Human subject; time 60 min
  Glucose: 132 mg %
Human subject; time 75 min
  Glucose: 124 mg %
Human subject; time 90 min
  Glucose: 124 mg %
Human subject; time 105 min
  Glucose: 96 mg %
Human subject; time 120 min
  Glucose: 96 mg %
Human subject; overnight fast, time 0 min
  Glucose: 95 mg %
C57B1/6 mice [4]
  AUC 30 minutes (blood sugar levels): 4381.25 ± 320
